In ChEMBL document CHEMBL3351779, “New tetracyclic tacrine analogs containing pyrano[2,3-c]pyrazole: efficient synthesis, biological assessment and docking simulation study” (Eur J Med Chem, 2015):

Columns and labels:
Acetylcholinesterase [1] = target: T1, Acetylcholinesterase (Electrophorus electricus, UniProt O42275)
Description: Inhibition of electric eel AChE using acetylthiocholine iodide as substrate preincubated for 10 mins followed by substrate addition by Ellman's method

Cholinesterase = Cholinesterase (Equus caballus, UniProt P81908)
Description: Inhibition of equine serum BuChE using butylthiocholine iodide as substrate preincubated for 10 mins followed by substrate addition by Ellman's method

[2] = Neuroprotective activity against H2O2-induced cell death in rat PC12 cells assessed as cell viability at 10 uM after 24 hrs by MTT assay relative to control; assay type: functional; details: PC-12, 24 h, read-out: Activity
Acetylcholinesterase [3] = target: T1, Acetylcholinesterase; assay: Inhibition of electric eel AChE by Lineweaver-Burk plot

T1 sequence (O42275 whole entry): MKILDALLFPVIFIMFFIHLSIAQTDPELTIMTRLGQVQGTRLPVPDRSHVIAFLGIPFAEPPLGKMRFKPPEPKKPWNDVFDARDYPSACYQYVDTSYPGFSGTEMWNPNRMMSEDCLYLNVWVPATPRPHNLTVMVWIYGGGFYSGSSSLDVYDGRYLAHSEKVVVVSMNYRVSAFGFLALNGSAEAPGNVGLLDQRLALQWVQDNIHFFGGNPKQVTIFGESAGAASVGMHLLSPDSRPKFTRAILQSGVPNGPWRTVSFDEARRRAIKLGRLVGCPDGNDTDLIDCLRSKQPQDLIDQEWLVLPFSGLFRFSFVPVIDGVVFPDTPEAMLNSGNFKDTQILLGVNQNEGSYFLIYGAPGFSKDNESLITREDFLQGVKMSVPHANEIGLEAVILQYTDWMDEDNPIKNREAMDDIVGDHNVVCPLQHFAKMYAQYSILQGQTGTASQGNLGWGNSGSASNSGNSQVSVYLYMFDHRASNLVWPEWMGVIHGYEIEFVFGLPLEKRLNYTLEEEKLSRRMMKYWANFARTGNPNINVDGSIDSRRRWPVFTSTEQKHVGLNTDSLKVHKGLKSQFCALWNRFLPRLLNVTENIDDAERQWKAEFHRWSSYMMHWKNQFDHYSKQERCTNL
Chain of Cholinesterase (P81908 whole entry): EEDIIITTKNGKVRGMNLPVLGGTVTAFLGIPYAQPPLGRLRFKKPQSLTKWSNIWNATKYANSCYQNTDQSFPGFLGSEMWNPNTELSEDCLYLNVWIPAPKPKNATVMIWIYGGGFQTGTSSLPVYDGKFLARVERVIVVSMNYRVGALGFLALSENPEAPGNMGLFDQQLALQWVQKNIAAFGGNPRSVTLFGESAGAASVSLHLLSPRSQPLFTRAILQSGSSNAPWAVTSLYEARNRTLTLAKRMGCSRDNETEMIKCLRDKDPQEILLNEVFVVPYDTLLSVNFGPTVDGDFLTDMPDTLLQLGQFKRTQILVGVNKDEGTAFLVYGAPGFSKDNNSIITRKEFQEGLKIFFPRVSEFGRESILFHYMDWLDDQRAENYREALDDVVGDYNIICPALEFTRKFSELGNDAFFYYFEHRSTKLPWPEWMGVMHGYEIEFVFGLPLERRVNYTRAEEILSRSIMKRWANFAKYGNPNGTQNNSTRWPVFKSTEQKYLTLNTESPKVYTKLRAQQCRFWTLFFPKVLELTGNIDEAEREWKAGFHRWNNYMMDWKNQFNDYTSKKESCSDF

Q: With `Cc1[nH]nc2c1C(c1cccs1)c1c(nc3c(c1N)CCCC3)O2` (racemic) as the molecule, how does the IC50 (Acetylcholinesterase [1]) read?
A: 720 nM

Q: And the IC50 (Cholinesterase)?
A: 16000 nM

Q: Which viability at 10 µM [2] does the source give for `O=c1c(O)c(-c2ccc(O)c(O)c2)oc2cc(O)cc(O)c12` [QUERCETIN] here?
A: 51.6%

Q: Which Ki (Acetylcholinesterase [3]) does the source give for `COc1ccc(C2c3c(n[nH]c3C)Oc3nc4c(c(N)c32)CCCC4)cc1OC` (racemic) here?
A: 490 nM

Q: And the viability at 10 µM [2]?
A: 48.4%

Q: What about the IC50 (Acetylcholinesterase [1]) of the same molecule?
A: 190 nM

Q: What about the IC50 (Cholinesterase) of the same molecule?
A: > 100000 nM

Q: Which IC50 (Acetylcholinesterase [1]) does the source give for `COc1ccc(OC)c(C2c3c(n[nH]c3C)Oc3nc4c(c(N)c32)CCCC4)c1` (racemic) here?
A: 500 nM

Q: And the IC50 (Cholinesterase)?
A: > 100000 nM

Q: For `Cc1[nH]nc2c1C(c1cccc3ccccc13)c1c(nc3c(c1N)CCCC3)O2` (racemic), which IC50 (Acetylcholinesterase [1]) is on record?
A: 320 nM

Q: What about the IC50 (Cholinesterase) of the same molecule?
A: 15000 nM

Q: For `Cc1[nH]nc2c1C(c1ccccc1F)c1c(nc3c(c1N)CCCC3)O2` (racemic), which IC50 (Acetylcholinesterase [1]) is on record?
A: 590 nM

Q: What about the IC50 (Cholinesterase) of the same molecule?
A: 33000 nM

Q: For `Cc1ccc(C2c3c(n[nH]c3C)Oc3nc4c(c(N)c32)CCCC4)cc1` (racemic), which IC50 (Acetylcholinesterase [1]) is on record?
A: 750 nM

Q: And the IC50 (Cholinesterase)?
A: 4500 nM

Q: Which IC50 (Acetylcholinesterase [1]) does the source give for `COc1ccccc1C1c2c(n[nH]c2C)Oc2nc3c(c(N)c21)CCCC3` (racemic) here?
A: > 10000 nM

Q: What about the IC50 (Cholinesterase) of the same molecule?
A: > 100000 nM

Q: Which IC50 (Acetylcholinesterase [1]) does the source give for `Cc1[nH]nc2c1C(c1cccc(Cl)c1Cl)c1c(nc3c(c1N)CCCC3)O2` (racemic) here?
A: 870 nM

Q: And the IC50 (Cholinesterase)?
A: > 100000 nM

Q: Which results are given for `COc1ccc(C2c3c(n[nH]c3C)Oc3nc4c(c(N)c32)CCCC4)cc1` (racemic)?
A: IC50 (Acetylcholinesterase [1]): 310 nM; IC50 (Cholinesterase): > 100000 nM

Q: For `COc1cc(C2c3c(n[nH]c3C)Oc3nc4c(c(N)c32)CCCC4)cc(OC)c1OC` (racemic), which IC50 (Acetylcholinesterase [1]) is on record?
A: 2180 nM

Q: What about the IC50 (Cholinesterase) of the same molecule?
A: > 100000 nM

Q: Which IC50 (Acetylcholinesterase [1]) does the source give for `Cc1[nH]nc2c1C(c1cccc([N+](=O)[O-])c1)c1c(nc3c(c1N)CCCC3)O2` (racemic) here?
A: 3270 nM

Q: And the IC50 (Cholinesterase)?
A: > 100000 nM

Q: What does the source list for `Cc1[nH]nc2c1C(c1ccc(F)cc1)c1c(nc3c(c1N)CCCC3)O2` (racemic)?
A: IC50 (Acetylcholinesterase [1]): 810 nM; IC50 (Cholinesterase): 25000 nM
